For three compounds, IC50 results are on record in ChEMBL document CHEMBL3639306, “1H-imidazo[4,5-c]quinolines” (2014).

Each structure is given as a SMILES string.

The target in the assay is T1, 3-phosphoinositide-dependent protein kinase 1 (Homo sapiens, UniProt O15530).
T1 sequence (O15530 whole entry): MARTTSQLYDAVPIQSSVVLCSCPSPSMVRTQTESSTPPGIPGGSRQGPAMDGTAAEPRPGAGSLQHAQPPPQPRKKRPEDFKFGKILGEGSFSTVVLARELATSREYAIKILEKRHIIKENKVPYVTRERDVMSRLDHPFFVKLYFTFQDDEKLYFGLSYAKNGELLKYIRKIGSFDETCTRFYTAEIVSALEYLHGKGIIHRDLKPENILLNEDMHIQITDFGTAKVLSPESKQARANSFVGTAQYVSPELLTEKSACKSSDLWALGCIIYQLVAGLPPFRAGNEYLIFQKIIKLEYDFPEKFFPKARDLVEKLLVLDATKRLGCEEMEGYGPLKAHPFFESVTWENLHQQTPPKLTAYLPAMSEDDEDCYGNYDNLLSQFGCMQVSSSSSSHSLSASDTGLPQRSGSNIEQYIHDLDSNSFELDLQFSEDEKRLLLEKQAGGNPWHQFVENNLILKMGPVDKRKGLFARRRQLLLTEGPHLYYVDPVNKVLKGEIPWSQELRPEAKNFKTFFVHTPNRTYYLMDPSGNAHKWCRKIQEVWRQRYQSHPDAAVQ
The experiment in a line: Kinase Assay: Recombinant human PDK1 enzyme (aa 52-556) linked at its N-terminal end to His6 is isolated from baculovirus-infected insect cells. Purified enzyme may be obtained for example from the University of Dundee, Scotland. The following components are combined in a well of a 96-well round-based dish (Greiner bio-one, No. 650101): 1. 15 uL of compound to be tested in varying concentrations (e.g. starting at 10 uM, and diluted in steps of 1:5) in APT buffer (50 mM Tris/Cl pH7.5; 0.05% beta -mercaptoethanol; 10 mM Mg-acetate; 0.0166% Tween 20; 3.33% DMSO) 2. 15 uL His6-PDK1 (aa 52-556) 3.33 ng/well) and PDKtide (KTFCGTPEYLAPEVRRE […]), synthesised by Pepceuticals Limited, Nottingham, United Kingdom; 25 uM final concentration); His6-PDK1 and PDKtide are together diluted accordingly in assay buffer (50 mM tris pH 7.5, 0.05% beta -mercaptoethanol, 10 mM Mg-acetate); PDKtide is present in this mixture as an 83.3 uM solution.
With `O=C(NCC#Cc1ccc2ncc3nc[nH]c3c2c1)c1cccn(Cc2ccc(F)c(F)c2)c1=O`, the IC50 (usually the concentration that inhibits the measured activity by half) came to 0.004 µM. The value for `Cn1c(CCO)nc2cnc3ccc(C#CCNC(=O)c4cncn(Cc5ccc(F)c(F)c5)c4=O)cc3c21` was 0.014 µM; that for `Cc1nc2cnc3ccc(C#CCNC(=O)c4cc(Cl)nn(Cc5ccc(F)c(F)c5)c4=O)cc3c2n1[C@H]1CCCN(C)C1` was 0.111 µM.
